Measured values: patent US11278534B2, “Enantiomers of substituted thiazoles as antiviral compounds” (Innovative Molecules GmbH, priority 2017, dated 2022)
Where two headings read alike, the source gives them in different places.

Legend:
HSV-1 ACV resistant = test: activity selectivity assay, HSV-1 ACV resistant; format: cell-based
Procedure: (§1) HSV (HSV-1 Walki, HSV-1F, HSV-2 MS, HSV clinical isolates and HSV resistant strains) was cultivated on Vero cells (ATCC CCL-81) under the following conditions: The cells were grown in M199 medium (5% foetal calf serum, 2 mM glutamine, 100 IU/mL penicillin, 100 μg/mL streptomycin) in cell culture bottles at 37° C. and 5% CO2. The cells were splitted twice per week (1:4). For the infection, the medium was removed, the cells were washed with Hank's solution, detached using 0.05% trypsin, 0.02% EDTA and incubacted at a density of 4×10^5 cells/mL under the above-mentioned conditions for 24 h. The medium was removed and the virus solution was added at an m.o.i of <0.05 in a volume of 2 mL per 175 cm^2 surface. The infected cells were incubated at 37° C., 5% CO2 for 1 h and then the medium was made up to a volume of 50 mL per 175 cm^2 bottle. […] The virus was released by freezing (−80° C.) and thwawing (37° C.) the infected cultures twice. Cell debris was removed by centrifugation (300 g, 10 min, 4° C.) and the supernatant was frozen in aliquots at −80° C.
(§2) The virus titre was determined using a plaque assay. To this end, Vero cells were seeded in 24-well plates at a density of 4×10^5 cells per well and, after 24 h of incubation (37° C., 5% CO2) infected with 100 μL of inoculum (dilutions (10^−2 to 10^−12) of the virus stock). 1 h after the infection, the medium was removed and the cells were covered with 1 mL of overlay medium (0.5% methylcellulose, 0.22% sodium bicarbonate, 2 mM glutamine, 100 IU/mL penicillin, 100 μg/mL streptomycin, 5% foetal calf serum in MEM-Eagle medium with Earl's salt) and incubated for 3 d in a cell incubator at (37° C., 5% CO2). The cells were then fixated using 4% formaline for 1 h, washed with water, stained with Giemsa for 30 min and then washed and dried. Using a plaque viewer, the virus titre was determined.
(§3) The antiviral action was determined using a patented (DE10235967 and WO2004/015416) and subsequently published activity selectivity assay (G. Kleymann et al. J. Biomol. Screen. 2004; 9, 578) in 96- or 384-well mictrotitre plates using various cell lines of neuronal, lymphoid and epithelial origin, such as, for example, Vero (african green monkey kidney cells), MEF (murine embryonal fibroblasts), HELF (human embryonal fibroblasts), NT2 (human neuronal cell line) or Jurkat (human lymphoid T-cell line). The relevant experimental details of the above mentioned patent and publication to evaluate the antiviral activity of the invention (disclosed compounds) are described below.
(§4) The effect of the substances on the spreading of the cytopathogenic effect was determined in comparision to the reference compound acyclovir-sodium (Zovirax™), a clinically approved anti-herpes chemotherapeutic.
(§5) The compounds (50 mM stock solution dissolved in DMSO) are examined on microtitre plates (for example 96-well flat bottom cell culture plates) at a final concentration of 250 to 0.5 μM or, in case of potent antiviral compounds, 250 to 0.5 nM in 2 to 4 replications (4 to 2 substances per plate). Also examined are toxic and cytostatic effects or precipitation of the compounds. […]

HSV-2 = test: activity selectivity assay, HSV-2 infected Vero cells; format: cell-based
Procedure: as §1, §2, §3, §4, §5

HSV-1 = test: activity selectivity assay, HSV-1 infected Vero cells; format: cell-based
Procedure: as §1, §2, §3, §4, §5

Human Carboanhydrase II = Human Carboanhydrase II (Homo sapiens, UniProt P00918); test: carbonic anhydrase activity assay (pH indicator method); format: biochemical; details: for carbonic anhydrase inhibition: result in words

Row | Compound | IC50 (HSV-1 ACV resistant; Human alphaherpesvirus 1) [µM] | IC50 (HSV-2; Human alphaherpesvirus 2) [µM] | IC50 (HSV-1; Human alphaherpesvirus 1) [µM] | carbonic anhydrase inhibition (Human Carboanhydrase II) | IC50 (Human Carboanhydrase II) [µM] | IC50 (HSV-1 ACV resistant; HSV-1 ACV resistant) [µM] | IC50 (HSV-2) [µM] | IC50 (HSV-1) [µM]
1 | Cc1nc(N(C)C(=O)Cc2ccc(-c3cc(F)ccc3F)cc2)sc1[S@@](=N)(=O)C1CC1 (single isomer, unassigned) [Example 7a(−), (−)-N-(5-(Cyclopropanesulfonimidoyl)-4-methylthiazol-2-yl)-2-(2′,5′-difluoro-[1,1′-biphenyl]-4-yl)-N-methylacetamide] | 0.02 to 0.05 | 0.03 to 0.3 | 0.02 to 0.05 | – | – | – | – | –
2 | Cc1nc(N(C)C(=O)Cc2ccc(-c3ccccn3)cc2)sc1[S@](C)(=N)=O (stereo in doubt) [Example 7c, N-Methyl-N-[4-methyl-5-(methylsulfonimidoyl)thiazol-2-yl]-2-[4-(2-pyridyl)phenyl]acetamide] | – | – | – | no or significantly reduced carbonic anhydrase inhibition | – | – | – | –
3 | Cc1nc(N(C)C(=O)Cc2ccc(-c3ccccn3)cc2)sc1[S@](=N)(=O)C1CC1 (single isomer, unassigned) [Example 7b(+), (+)-N-(5-(Cyclopropanesulfonimidoyl)-4-methylthiazol-2-yl)-N-methyl-2-(4-(pyridin-2-yl)phenyl)acetamide] | 0.5 to 1.5 | 2 to 8 | 0.5 to 1.5 | – | – | – | – | –
4 | Cc1nc(N(C)C(=O)Cc2ccc(-c3cc(F)ccc3F)cc2)sc1[S@](C)(=N)=O [Example 7(+), (+)-(R)-2-(2′,5′-Difluoro-[1,1′-biphenyl]-4-yl)-N-methyl-N-(4-methyl-5-(S-methylsulfonimidoyl)thiazol-2-yl)acetamide] | 0.03 to 0.2 | 0.03 to 0.2 | 0.03 to 0.2 | no or significantly reduced carbonic anhydrase inhibition | > 10 | – | – | –
5 | Nc1nc2c(ncn2COCCO)c(=O)[nH]1 [Acyclovir, reference compound] | – | – | – | – | – | > 25 | 0.5 to 3 | 0.5 to 3
6 | Cc1nc(N(C)C(=O)Cc2ccc(-c3ccccn3)cc2)sc1[S@@](=N)(=O)C1CC1 (single isomer, unassigned) [Example 7b(−), (−)-N-(5-(Cyclopropanesulfonimidoyl)-4-methylthiazol-2-yl)-N-methyl-2-(4-(pyridin-2-yl)phenyl)acetamide] | 0.075 to 0.25 | 0.2 to 0.75 | 0.075 to 0.25 | – | – | – | – | –
7 | Cc1nc(N(C)C(=O)Cc2ccc(-c3cc(F)ccc3F)cc2)sc1[S@](=N)(=O)C1CC1 (single isomer, unassigned) [Example 7a(+), (+)-N-(5-(Cyclopropanesulfonimidoyl)-4-methylthiazol-2-yl)-2-(2′,5′-difluoro-[1,1′-biphenyl]-4-yl)-N-methylacetamide] | 0.25 to 0.75 | 0.5 to 2 | 0.25 to 0.75 | – | – | – | – | –
8 | CN(C(=O)Cc1ccc(-c2cc(F)ccc2F)cc1)c1nc(CO)c([S@@](C)(=N)=O)s1 (single isomer, unassigned) [Example 10a, 2-(2′,5′-Difluoro-[1,1′-biphenyl]-4-yl)-N-(4-(hydroxymethyl)-5-(S-methylsulfonimidoyl)thiazol-2-yl)-N-methylacetamide] | 0.05 to 0.25 | 1 to 5 | 0.05 to 0.25 | – | – | – | – | –
9 | CN(C(=O)Cc1ccc(-c2cc(F)ccc2F)cc1)c1nc(CO)c([S@](C)(=N)=O)s1 (single isomer, unassigned) [Example 10b, 2-(2′,5′-Difluoro-[1,1′-biphenyl]-4-yl)-N-(4-(hydroxymethyl)-5-(S-methylsulfonimidoyl)thiazol-2-yl)-N-methylacetamide] | 1 to 5 | 5 to 25 | 1 to 5 | – | – | – | – | –
10 | Cc1nc(N(C)C(=O)Cc2ccc(-c3cc(F)ccc3F)cc2)sc1S(=N)(=O)C1CC1 (stereo not drawn) [Example 7a, N-[5-(Cyclopropylsulfonimidoyl)-4-methyl-thiazol-2-yl]-2-[4-(2,5-difluorophenyl)phenyl]-N-methyl-acetamide] | 0.03 to 0.1 | 0.05 to 0.5 | 0.03 to 0.1 | – | – | – | – | –
11 | CC(=O)N=[S@](C)(=O)c1sc(N(C)C(=O)Cc2ccc(-c3cc(F)ccc3F)cc2)nc1C [Example 8, (R)-N-(5-(N-Acetyl-S-methylsulfonimidoyl)-4-methylthiazol-2-yl)-2-(2′,5′-difluoro-[1,1′-biphenyl]-4-yl)-N-methylacetamide] | 10 to 50 | 50 to 250 | 10 to 50 | – | – | – | – | –
